According to patent US11844845B2, “Cell penetrating peptide, conjugate comprising same, and composition comprising conjugate” (GEMVAX & KAEL CO., LTD., priority 2012, dated 2023):

Each substance was assayed on HeLa cell (assay: Cell penetration of pep(CPP)-FITC conjugate in HeLa cell line, flow cytometry (FACS)). Conditions: HeLa cells, 20 uM FITC-fused peptide, 37° C. for an hour, control = FITC only.
Assay type: cell-based, Homo sapiens
Procedure: Homo sapiens cervix adenocarcinoma cell line as HeLa cell lines were purchased from ATCC (American Type Cell Culture). The cells were cultured in MEM supplemented with 10% fetal bovine serum (Invitrogen, USA), Earle's salts, non-essential amino acids, sodium pyruvate and 100 μg/ml penicillin and 10 units/ml streptomycin and cultured at 37° C., 5% CO2 incubator.
Flow cytometry and Confocal microscope analysis were performed to compare the between degree of cellular uptake of the cells were treated with SEQ ID NO: 2 to SEQ ID NO: 178, pep (CPP) and control.
The cell line was divided in a 6-well plate and cultured in a medium containing 10% fetal bovine serum (Invitrogen, USA), 100 μg/ml penicillin, 100 units/ml streptomycin at 37° C. 5% CO2 incubator for 12 hours. After washing the cell line with PBS, starvation was induced in a Minimum Essential Medium for an hour. 20 uM of each carrier peptide was treated and cultured at 37° C. for an hour. After repeating the step of washing the cells with PBS for three times, Trypsin-EDTA was treated form 10 mins at 37° C. to separate the carrier peptide on the outside of the cell. cells were collected with refrigerated PBS and centrifugation was performed to repeat the step of washing the cells for three times. After then, the cells were suspended in 0.5 ml of PBS containing 4% Paraformaldehyde and fluorescence of the cells was analyzed using FACS Calibur (Becton Dickinson). The cellular uptake aspect of control and various peptides combined with FITC was compared and analyzed by MFI (Mean Fluorescence Intensity).
Analysis results shown in FIGS. 2 to 29 are given in detail in Table 7 below.

Row | Substance | cellular uptake, MFI (Mean Fluorescence Intensity)
1 | AEVRQHREARPALLTSRLRFIPK (listed as Homo sapiens) [Pep-RIA-7] | 16.49 ± 1.35
2 | AEVRQHREARPALLTSRLRFIPKP (listed as Homo sapiens) [Pep-RIA-51] | 15.13 ± 1.03
3 | AEVRQHREARPALLTSRLRFIPKPD (listed as Homo sapiens) [Pep-RIA-52] | 15.49 ± 0.29
4 | AEVRQHREARPALLTSRLRFIPKPDG (listed as Homo sapiens) [Pep-RIA-53] | 15.85 ± 0.74
5 | AEVRQHREARPALLTSRLRFIPKPDGL (listed as Homo sapiens) [Pep-RIA-54] | 13.71 ± 0.11
6 | AEVRQHREARPALLTSRLRFIPKPDGLR (listed as Homo sapiens) [Pep-RIA-55] | 18.75 ± 1.51
7 | AEVRQHREARPALLTSRLRFIPKPDGLRPI (listed as Homo sapiens) [Pep-RIA-57] | 16.75 ± 0.48
8 | ALL (listed as Homo sapiens) [Pep-RIA-145] | 13.85 ± 0.38
9 | ALLT (listed as Homo sapiens) [Pep-RIA-144] | 14.54 ± 0.21
10 | ALLTS (listed as Homo sapiens) [Pep-RIA-143] | 13.24 ± 0.37
11 | ALLTSR (listed as Homo sapiens) [Pep-RIA-142] | 13.23 ± 0.57
12 | ALLTSRLR (listed as Homo sapiens) [Pep-RIA-107] | 16.41 ± 1.36
13 | ALLTSRLRF (listed as Homo sapiens) [Pep-RIA-140] | 21.18 ± 0.11
14 | ALLTSRLRFIP (listed as Homo sapiens) [Pep-RIA-139] | 34.19 ± 1.43
15 | ALLTSRLRFIPK (listed as Homo sapiens) [Pep-RIA-94] | 21.07 ± 1.56
16 | ARP (listed as Homo sapiens) [Pep-RIA-120] | 10.04 ± 0.53
17 | ARPA (listed as Homo sapiens) [Pep-RIA-119] | 11.19 ± 0.61
18 | ARPAL (listed as Homo sapiens) [Pep-RIA-118] | 11.41 ± 1.03
19 | ARPALL (listed as Homo sapiens) [Pep-RIA-117] | 15.06 ± 0.58
20 | ARPALLT (listed as Homo sapiens) [Pep-RIA-116] | 11.32 ± 0.99
21 | ARPALLTS (listed as Homo sapiens) [Pep-RIA-115] | 12.13 ± 0.34
22 | ARPALLTSRL (listed as Homo sapiens) [Pep-RIA-113] | 11.54 ± 1.57
23 | ARPALLTSRLR (listed as Homo sapiens) [Pep-RIA-112] | 15.96 ± 1.24

Row | Substance | cellular uptake, MFI (Mean Fluorescence Intensity)
24 | ARPALLTSRLRF (listed as Homo sapiens) [Pep-RIA-111] | 20.53 ± 0.21
25 | ARPALLTSRLRFI (listed as Homo sapiens) [Pep-RIA-110] | 11.89 ± 0.68
26 | ARPALLTSRLRFIP (listed as Homo sapiens) [Pep-RIA-104] | 22.51 ± 0.96
27 | ARPALLTSRLRFIPK (listed as Homo sapiens) [Pep-RIA-91] | 19.96 ± 0.51
28 | EAEVRQHREARPALLTSRLRFIPK (listed as Homo sapiens) [Pep-RIA-8] | 14.12 ± 0.79
29 | EAR (listed as Homo sapiens) [Pep-RIA-90] | 9.77 ± 0.97
30 | EARP (listed as Homo sapiens) [Pep-RIA-89] | 9.13 ± 0.77
31 | EARPA (listed as Homo sapiens) [Pep-RIA-88] | 8.89 ± 0.61
32 | EARPAL (listed as Homo sapiens) [Pep-RIA-87] | 9.6 ± 1.76
33 | EARPALL (listed as Homo sapiens) [Pep-RIA-86] | 9.95 ± 2.34
34 | EARPALLT (listed as Homo sapiens) [Pep-RIA-85] | 10.1 ± 0.34
35 | EARPALLTS (listed as Homo sapiens) [Pep-RIA-84] | 10.32 ± 0.49
36 | EARPALLTSR (listed as Homo sapiens) [Pep-RIA-83] | 10.27 ± 0.25
37 | EARPALLTSRL (listed as Homo sapiens) [Pep-RIA-82] | 10.12 ± 0.95
38 | EARPALLTSRLR (listed as Homo sapiens) [Pep-RIA-81] | 14.63 ± 0.22
39 | EARPALLTSRLRF (listed as Homo sapiens) [Pep-RIA-80] | 14.7 ± 0.79
40 | EARPALLTSRLRFI (listed as Homo sapiens) [Pep-RIA-79] | 10.73 ± 1.18
41 | EARPALLTSRLRFIP (listed as Homo sapiens) [Pep-RIA-78] | 13.95 ± 0.57
42 | EARPALLTSRLRFIPKP (listed as Homo sapiens) [Pep-RIA-64] | 15.51 ± 0.58
43 | EARPALLTSRLRFIPKPD (listed as Homo sapiens) [Pep-RIA-65] | 12.84 ± 1.11
44 | EARPALLTSRLRFIPKPDG (listed as Homo sapiens) [Pep-RIA-66] | 13.46 ± 0.19
45 | EARPALLTSRLRFIPKPDGLR (listed as Homo sapiens) [Pep-RIA-68] | 14.94 ± 1.88
46 | EARPALLTSRLRFIPKPDGLRP (listed as Homo sapiens) [Pep-RIA-69] | 13.72 ± 0.68

Row | Substance | cellular uptake, MFI (Mean Fluorescence Intensity)
47 | EARPALLTSRLRFIPKPDGLRPI (listed as Homo sapiens) [Pep-RIA-70] | 16.32 ± 0.44
48 | EARPALLTSRLRFIPKPDGLRPIV (listed as Homo sapiens) [Pep-RIA-71] | 17.21 ± 0.52
49 | EARPALLTSRLRFIPKPDGLRPIVN (listed as Homo sapiens) [Pep-RIA-72] | 21.7 ± 1.21
50 | EARPALLTSRLRFIPKPDGLRPIVNM (listed as Homo sapiens) [Pep-RIA-73] | 24.33 ± 0.89
51 | EARPALLTSRLRFIPKPDGLRPIVNMD (listed as Homo sapiens) [Pep-RIA-74] | 21.77 ± 2.01
52 | EARPALLTSRLRFIPKPDGLRPIVNMDY (listed as Homo sapiens) [Pep-RIA-75] | 26.21 ± 1.29
53 | EARPALLTSRLRFIPKPDGLRPIVNMDYV (listed as Homo sapiens) [Pep-RIA-76] | 22.07 ± 0.64
54 | EARPALLTSRLRFIPKPDGLRPIVNMDYVV (listed as Homo sapiens) [Pep-RIA-77] | 87.67 ± 0.93
55 | ELSEAEVRQHREARPALLTSRLRFIPK (listed as Homo sapiens) [Pep-RIA-11] | 15.22 ± 0.23
56 | EVRQHREARPALLTSRLRFIPK (listed as Homo sapiens) [Pep-RIA-6] | 16.09 ± 2.52
57 | EVRQHREARPALLTSRLRFIPKP (listed as Homo sapiens) [Pep-RIA-40] | 15.14 ± 3.52
58 | EVRQHREARPALLTSRLRFIPKPD (listed as Homo sapiens) [Pep-RIA-41] | 13.58 ± 2.78
59 | EVRQHREARPALLTSRLRFIPKPDG (listed as Homo sapiens) [Pep-RIA-42] | 15.27 ± 1.65
60 | EVRQHREARPALLTSRLRFIPKPDGL (listed as Homo sapiens) [Pep-RIA-43] | 15.34 ± 1.35
61 | EVRQHREARPALLTSRLRFIPKPDGLRP (listed as Homo sapiens) [Pep-RIA-45] | 14.23 ± 1.65
62 | EVRQHREARPALLTSRLRFIPKPDGLRPI (listed as Homo sapiens) [Pep-RIA-58] | 17.96 ± 0.97
63 | FIPK (listed as Homo sapiens) [Pep-RIA-102] | 12.64 ± 0.44
64 | HREARPALLTSRLRFIPK (listed as Homo sapiens) [Pep-RIA-2] | 20.56 ± 1.23
65 | HREARPALLTSRLRFIPKP (listed as Homo sapiens) [Pep-RIA-16] | 15.96 ± 2.37
66 | HREARPALLTSRLRFIPKPD (listed as Homo sapiens) [Pep-RIA-17] | 13.61 ± 0.22
67 | HREARPALLTSRLRFIPKPDG (listed as Homo sapiens) [Pep-RIA-22] | 14.42 ± 0.28
68 | HREARPALLTSRLRFIPKPDGL (listed as Homo sapiens) [Pep-RIA-29] | 15.26 ± 0.95
